Assays:
Type in all cases: cell-based
human GPR40 (hGPR40) [1] = target: T1, human GPR40 (hGPR40) (Homo sapiens, UniProt O14842); assay: Determination of intracellular Ca2+ concentration (FLIPR), cell line TXGPR40; settings: for [Ca^2+]/GPR40 10 μM (ratio vs. LA): relative fluorescence intensity vs LA at 10 μM
T1 construct: expressed in transfected cells; doxycycline-inducible expression vector
Experimental: (§1) (1) In this test, The cell lines TXGPR40, TXGPR120 and GPR120/Flp-in were plated onto a collagen-coated black 96-well plate in 2×10^5 cells/well. The 96-well plates containing the cells were centrifuged and treated with Doxycycline (final concentration 10 μg/mL), incubated in a CO2 incubator for 21 hours, then used for assay.
(§2) (2) The ligand used in this test includes NCP04, NCP14, NCG20, NCG21, NCG22, NCG23, NCP02, NCP03, NCP05, NCP06, NCG14, NCG17, NCG19, NCG28, NCG29, NCG30, NCG31, NCG34, NCG35, NCG37, NCG38, NCG44, NCG45, NCG46, and NCG54. Each ligand was dissolved in DMSO and adjusted to the concentration of 10 mM, then diluted with Hanks' Balanced Salt Solution (pH 7.4) containing 20 mM HEPES (referred to as FLIPR buffer hereinafter) to the final concentration of 1 to 100 μM. 1% DMSO was used as the negative control, and LA was used as the positive control.
(§3) The ligands and controls were placed in different 96-well plates from the plates for the cells.
(§4) (3) The 96-well plate containing the cells was removed from the CO2 incubator. A fluorescent dye prepared in a twofold higher concentration (Ca Assay Kit Component A diluted with FLIPR Buffer) was added in 50 μL/well, then allowed to stand in the dark at room temperature for one hour.
(§5) (4) After one hour, the 96-well plate containing the cells and the 96-well plate in which ligands and controls were prepared were set on FLIPR (Fluorometric Imaging Plate Reader) for determination.
(§6) (5) Fluorometry using FLIPR was carried out at a laser output of 1.0 W for five minutes. […] after the start of the determination, the ligand (25 μL) was added dropwise to the cell plate at a rate of 50 μL/sec. The intensity of fluorescence was automatically digitized by the application program installed in the FLIPR from the image taken by the CCD camera (with exposure time of 0.40 sec). The interval of data sampling was one second for the initial one minute after the start of operation, and six seconds for the subsequent four minutes.
(§7) (6) The maximum fluorescence intensity was obtained from the data showing the change in the fluorescence intensity over time observed in each well. The maximum fluorescence intensity was plotted against ligand concentration, and pEC50 was calculated. The ratio of the fluorescence intensity for each ligand to LA at 10 μM was calculated as the relative intensity of each ligand.

human GPR40 (hGPR40) [2] = target: T1, human GPR40 (hGPR40); assay: ERK assay, screening for GPR40 ligands in cell line TXGPR40; settings: TXGPR40 cells; for ERK/GPR40 100 μM: ligand 100 μM
Experimental: (§8) This Test 1 was carried out by using the following materials and methods.
(§9) (1) In this test, the cell lines TXGPR40 and TXGPR120 were plated in 35-mm dishes in 5×10^5 cells/per dish.
(§10) Each ligand was dissolved in DMSO, diluted tenfold with the medium to make the total amount of 100 μl. DMSO was used as the negative control, and PMA (phorbol-12-myristate-13-acetate) was used as the positive control.
(§11) (3) The medium was removed from the dish of the cell to reduce the total amount of liquid to 0.9 ml.
(§12) (4) The ligand solution was added dropwise to the cell solution, and dispersed by gently shaking the dish, and allowed to react at room temperature.
(§13) (5) After 5 minutes of reaction, the medium was discarded, and the remaining medium on the dish was removed on ice using an aspirator.
(§14) (6) 150 μl of Lysis buffer (50 mM HEPES (pH 7.0), 150 mM NaCl, 10% glycerol, 1% NonidetP-40, 2 mM MgCl2, 1 mM EDTA, 100 mM NaF, 10 mM sodium phosphate, 1 mM Na3VO4, 20 mM β-glycerophosphate, and Proteinase inhibitor) were added, then the cells were collected using a cell scraper.
(§15) (1) The crude enzyme solution mixed with SDS Sample Buffer was subjected to ultrasonication with a sonifier, then incubated at 90° C. for five minutes.
(§16) (2) The mixture was vortexed and centrifuged at 15,000 rpm for five minutes at 4° C.
(§17) (3) The supernatant of the centrifuged sample was applied to two 7.5% acrylamide gel slabs placed in an electrophoresis tank filled with 1×SDS-PAGE Running Buffer (25 mM Tris, 0.2 M Glycin, and 1% SDS). Electrophoresis was carried out under a constant current of 40 mA for about 80 to 90 minutes.
(§18) (1) A PVDF membrane cut in the same size as the gel slab was immersed in methanol for about 15 seconds and then shaken in Transfer Buffer C solution (25 mM Tris, 0.02% SDS, 2% methanol and 40 mM 6-aminohexanoic acid) at room temperature to swell for 15 minutes. Filter paper for blotting was cut into a 10-cm square.
(§19) (2) On the blotting apparatus were placed sequentially two pieces of filter paper immersed in A solution (0.3 M Tris, 0.02% SDS and 2% methanol), two pieces of filter paper immersed in B solution (25 mM Tris, 0.02% SDS and 2% methanol), and the membrane thereon. The gel slab after electrophoresis, and finally two pieces of filter paper immersed in C solution was placed thereon, and the apparatus was closed.
(§20) (3) The protein was transferred to the membrane at 15 V for 30 minutes.
(§21) (1) The following procedure was all carried out at room temperature. After the protein transfer, the membrane was placed into a vial containing 1×TTBS (0.2 M Tris, 1.5 M NaCl, 0.2% Tween 20) and washed for 15 minutes.
(§22) (2) TTBS was discarded, and about 10 ml of Block Ace was added and blocked on a shaker for one hour.
(§23) (1) The primary antibodies (p44/42 MAP Kinase Antibody and Phospho-p44/42 MAP Kinase Antibody) were each diluted 1000-fold with TTBS.
(§24) (2) After blocking, the Block Ace solution was removed, the solution of the primary antibody was added and allowed to react on the shaker for two hours.
(§25) (1) The secondary antibody (Anti-rabbit Ig, Horseradish Peroxidase linked F(ab′)2 fragments) was diluted 5000-fold with TTBS.
(§26) (2) The primary antibody solution was removed and the membrane was washed three times on the shaker in TTBS for five to ten minutes each.
(§27) (3) TTBS was removed and the solution of secondary antibody was added and left for 1 hour on the shaker.
(§28) (1) 2 ml each of Detection Reagent 1 and Detection Reagent 2 from ECL kit were mixed together on ice.
(§29) (2) The solution of secondary antibody was removed from the membrane reacted with the secondary antibody and then washed three times on the shaker in TTBS for five minutes each.
(§30) (3) The liquid was thoroughly removed from the membrane, which was then placed in a plastic bag, and 2 ml of the Detection Reagent mixture was added per each membrane.
(§31) (4) The membrane was kept in contact with a film in the cassette for one to five minutes, and the film was developed using an automatic developing machine.

human GPR120 (hGPR120) [3] = target: T2, human GPR120 (hGPR120) (Homo sapiens, UniProt Q5NUL3); assay: Determination of intracellular Ca2+ concentration (FLIPR), cell line GPR120/Flp-in; settings: GPR120/Flp-in cells; for EC50: maximum fluorescence intensity vs ligand concentration, read-out: [Ca^2+]/GPR120/Flp-In pEC50 (converted); for [Ca^2+]/GPR120/Flp-In 10 μM (ratio vs. LA): relative fluorescence intensity vs LA at 10 μM
T2 construct: expressed in transfected cells; doxycycline-inducible expression vector
T2 sequence (Q5NUL3 1-361): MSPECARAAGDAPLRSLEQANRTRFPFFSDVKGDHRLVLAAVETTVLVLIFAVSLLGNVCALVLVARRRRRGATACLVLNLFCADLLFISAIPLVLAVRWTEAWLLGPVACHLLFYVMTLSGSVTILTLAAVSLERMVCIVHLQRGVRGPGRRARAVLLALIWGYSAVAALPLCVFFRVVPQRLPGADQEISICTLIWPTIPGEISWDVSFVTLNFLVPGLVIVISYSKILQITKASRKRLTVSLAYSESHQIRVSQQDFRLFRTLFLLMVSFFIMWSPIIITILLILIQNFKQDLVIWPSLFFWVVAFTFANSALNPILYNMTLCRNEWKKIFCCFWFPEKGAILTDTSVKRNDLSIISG
Experimental: as §1, §2, §3, §4, §5, §6, §7

human GPR120 (hGPR120) [4] = target: T2, human GPR120 (hGPR120); assay: Determination of intracellular Ca2+ concentration (FLIPR), cell line TXGPR120; settings: for EC50 / [Ca^2+]/GPR120 10 μM (ratio vs. LA): TXGPR120 cells; for EC50: maximum fluorescence intensity vs ligand concentration, read-out: [Ca^2+]/GPR120 pEC50 (converted); for agonistic activity for hGPR120 (in words): cells in which GPR120 has been transgenically expressed; for [Ca^2+]/GPR120 10 μM (ratio vs. LA): relative fluorescence intensity vs LA at 10 μM
Experimental: as §1, §2, §3, §4, §5, §6, §7

human GPR120 (hGPR120) [5] = target: T2, human GPR120 (hGPR120); assay: ERK assay, screening for GPR120 ligands in cell line TXGPR120; settings: for ERK/GPR120 10 μM: ligand 10 μM; for ERK/GPR120 10 μM / ERK/GPR120 100 μM: class relative to LA; for ERK/GPR120 100 μM: ligand 100 μM;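 on ERK/GPR120 10 μM: signals normalized between DMSO and PMA controls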
Experimental: as §8, §9, §10, §11, §12, §13, §14, §15, §16, §17, §18, §19, §20, §21, §22, §23, §24, §25, §26, §27, §28, §29, §30, §31

T1 sequence (O14842 whole entry): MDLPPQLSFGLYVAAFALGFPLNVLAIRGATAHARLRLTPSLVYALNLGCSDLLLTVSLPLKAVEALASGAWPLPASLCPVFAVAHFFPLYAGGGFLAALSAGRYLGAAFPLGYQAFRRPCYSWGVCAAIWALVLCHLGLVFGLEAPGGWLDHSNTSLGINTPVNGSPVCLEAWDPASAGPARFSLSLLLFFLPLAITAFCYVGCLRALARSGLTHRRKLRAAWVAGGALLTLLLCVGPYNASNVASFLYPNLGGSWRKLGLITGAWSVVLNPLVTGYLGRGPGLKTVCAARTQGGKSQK

| [Ca^2+]/GPR40 10 μM (ratio vs. LA) (human GPR40 (hGPR40) [1]; TXGPR40 cells) | ERK/GPR40 100 μM (human GPR40 (hGPR40) [2]; class relative to LA) | EC50 (human GPR120 (hGPR120) [3]) | [Ca^2+]/GPR120/Flp-In 10 μM (ratio vs. LA) (human GPR120 (hGPR120) [3]) | EC50 (human GPR120 (hGPR120) [4]) | agonistic activity for hGPR120 (in words) (human GPR120 (hGPR120) [4]) | [Ca^2+]/GPR120 10 μM (ratio vs. LA) (human GPR120 (hGPR120) [4]) | ERK/GPR120 10 μM (human GPR120 (hGPR120) [5]; TXGPR120 cells) | ERK/GPR120 100 μM (human GPR120 (hGPR120) [5]; TXGPR120 cells) | EC50 (human GPR40 (hGPR40) [1]; TXGPR40 cells, maximum fluorescence intensity vs ligand concentration, read-out: [Ca^2+]/GPR40 pEC50 (converted)) | agonistic activity for GPR40 (in words) (human GPR40 (hGPR40) [1]; cells in which GPR40 has been transgenically expressed) | ERK/GPR40 10 μM (human GPR40 (hGPR40) [2]; ligand 10 μM, class relative to LA) | ERK activation for GPR40 (in words) (human GPR40 (hGPR40) [2]; FIGS. 1-4) | selectivity for GPR120 in ERK assay (in words) (human GPR120 (hGPR120) [5]; GPR120 versus GPR40) | ERK activation for GPR120 (in words) (human GPR120 (hGPR120) [5]; TXGPR120 cells, FIGS. 5-8) | SMILES | selectivity between GPR40 and GPR120 (in words), from Tables 3 and 4 (human GPR120 (hGPR120) [4]; GPR40 versus GPR120, Ca2+ and ERK results) |
| --- | --- | --- | --- | --- | --- | --- | --- | --- | --- | --- | --- | --- | --- | --- | --- | --- |
| 0.01 | + (+ denotes 0 to 100% of LA) | 3.55 µM | 0.85 | 22.9 µM | exhibit a similar effect | 0.49 | + (+ denotes 0 to 100% of LA) | ++ (++ denotes 50 to 100% of LA) | – | – | – | – | – | – | O=C(O)CCCc1ccc(OCCN(c2ccccc2)c2ncccn2)cc1 [NCG44] | – |
| 1.25 | +++ (+++ denotes a higher value than LA) | 17.8 µM | 0.57 | – | exhibit a similar effect | 0.00 | + (+ denotes 0 to 100% of LA) | ++ (++ denotes 50 to 100% of LA) | 5.25 µM | showed a specific reactivity | ++ (++ denotes 50 to 100% of LA) | – | – | – | CCCN(CCOc1ccc(CCC(=O)O)cc1)c1ccccn1 [NCP03] | – |
| 0.01 | + (+ denotes 0 to 100% of LA) | 3.72 µM | 0.88 | 15.5 µM | exhibit a similar effect | 0.71 | ++ (++ denotes 50 to 100% of LA) | +++ (+++ denotes a higher value than LA) | – | – | – | strongly activated ERK | selective for GRP120 | strongly activate ERK | O=C(O)CCCc1ccc(OCCN(c2ccccc2)c2cccnc2)cc1 [NCG30] | acting relatively mildly for GPR40 but acting strongly for GPR120 |

— patent US8318781B2, “G-protein-conjugated receptor agonist” (Japan Science and Technology Agency, priority 2007, dated 2012)
